Data on 21 molecules can be found in patent US12098148B2, “Therapeutic compounds” (C4X Discovery Limited, priority 2018, dated 2024).

The term EC50 denotes the midpoint of the concentration-response curve. One may read the IC50 as the concentration at which inhibition is half-maximal. Lower therefore signals higher potency.

In assay [1] the test system is NQO1 mRNA in BEAS-2B cells. Kind of assay: Beas2B NQO1 mRNA cell based assay. Details: species or system human. The conditions noted are these: 24 h compound treatment, increase in NQO1 mRNA vs vehicle (0.1% DMSO), read-out: EC50. The procedure: Beas2B NQO1 mRNA Cell Based Assay
The up regulation of the NRF2 mediated gene NAD(P)H:quinone acceptor oxidoreductase 1 (NQO1) was measured using the following assay method: BEAS-2B cells (ATCC CRL-9609) were plated in 96-well clear plates at 20,000 cells/well in 75 μL of cell culture media and incubated overnight (37° C., 5% CO2). On day 2, 25 μL of compound or controls were added to the cells for 24 h. On day 3, the medium was aspirated from the plate and the Cells-to-CT™ 1-Step TaqMan® Kit (Ambion A25603) was used to perform expression analysis directly from cultured cells without RNA purification according to the manufacturer's instructions.
Briefly, cells were washed with ice cold PBS and 22.5 μL of room-temperature DNase/Lysis solution was added to the cells and incubated at room temperature for 5 minutes. To stop the reaction, 2.25 μL of stop solution was added to the cell lysate. The samples were diluted 1:5 using nuclease free water and 2.5 μL transferred into the PCR plate. Real-time PCR was performed using the C-1000 Thermal Cycler (Bio-Rad) using human beta actin as the internal control. The cDNA was amplified with a specific primer for NQO1 using the 1-step RT-PCR master mix (Ambion Cells-to-CT™ 1-Step TaqMan® Kit A25603). The primers/probes sets that were used for amplification of cDNA were obtained from TaqMan Gene Expression Assays (Applied Biosystems). The comparative CT (ΔΔCT) relative quantification method was used to calculate the relative mRNA level of the target gene NQO1 as described in the Applied Biosystems Chemistry Guide.

For assay [2], the target named is human KEAP1 (N-term, residues 321-609) (Homo sapiens, UniProt Q14145). Kind of assay: biochemical.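 Also: fluorescence polarization competition assay of Kelch domain binding to NRF2, 12-point 1:3 dilution series from 10 µM, read after 1 h at room temperature, floor 10 nM.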
Chain of human KEAP1 (N-term, residues 321-609) (Q14145 321-609): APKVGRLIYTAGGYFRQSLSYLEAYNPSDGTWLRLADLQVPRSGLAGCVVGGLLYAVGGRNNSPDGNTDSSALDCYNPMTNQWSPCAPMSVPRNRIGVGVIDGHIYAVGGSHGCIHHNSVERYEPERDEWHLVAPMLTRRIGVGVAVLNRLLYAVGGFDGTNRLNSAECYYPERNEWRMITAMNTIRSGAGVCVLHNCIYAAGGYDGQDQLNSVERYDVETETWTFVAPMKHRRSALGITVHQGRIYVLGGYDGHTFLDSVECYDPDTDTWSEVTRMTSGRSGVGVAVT

Where two headings read alike, the source gives them in different places.

Turning to `CC(Oc1ccc(Br)c2c1[C@@H](CN1Cc3ccccc3C1=O)N(C(=O)[C@@H]1CCCC[C@@H]1C(=O)O)CC2)c1cn(C(C)C)nn1` (single isomer, unassigned) [Example 46], the EC50 in assay [1] (Homo sapiens, BEAS-2B, 24 h) is 60 nM. The IC50 in assay [2] is 37 nM.

As for `CC(Oc1ccc(Br)c2c1[C@@H](CN1Cc3ccccc3C1=O)N(C(=O)[C@@H]1CCCC[C@@H]1C(=O)O)CC2)c1cn(C(C)C)nn1` (single isomer, unassigned) [Example 47], the 50% effective concentration (EC50) in assay [1] is 76 nM. Besides, the midpoint of inhibition in assay [2], the IC50, lay at 68 nM.

On to `CC1CCN(C[C@@H]2c3c(OCc4cn(C(C)C)nn4)ccc(Br)c3CCN2C(=O)[C@@H]2CCCC[C@@H]2C(=O)O)C1=O` (single isomer, unassigned) [Example 73], for which the half-maximal effective concentration (EC50) in assay [1] was 130 nM. In assay [2], inhibition was half-maximal at 16 nM (IC50).

As for `CC1CCN(C[C@@H]2c3c(OCc4cn(C(C)C)nn4)ccc(Br)c3CCN2C(=O)[C@@H]2CCCC[C@@H]2C(=O)O)C1=O` (single isomer, unassigned) [Example 74], the EC50 in assay [1] came to 22 nM. The molecule further showed an IC50 in assay [2] of 6.8 nM.

Regarding `Cn1nnc(COc2ccc(Cl)c3c2[C@@H](CN2CC(C(F)(F)F)CC2=O)N(C(=O)[C@@H]2CCCC[C@]2(C)C(=O)O)CC3)c1C(F)F` (single isomer, unassigned) [Example 212], the EC50 in assay [1] (Homo sapiens, BEAS-2B, 24 h) is 1.9 nM. Besides, the 50% inhibitory concentration (IC50) in assay [2] came to 5.7 nM.

As for `Cn1nnc(COc2ccc(Cl)c3c2[C@@H](CN2CC(C(F)(F)F)CC2=O)N(C(=O)[C@@H]2CCCC[C@]2(C)C(=O)O)CC3)c1C(F)F` (single isomer, unassigned) [Example 213], the concentration giving a half-maximal response (EC50) in assay [1] came to 2.2 nM. This molecule displayed an IC50 in assay [2] of 5.2 nM.

As for `Cn1nnc2c1CC(Oc1ccc(Cl)c3c1[C@@H](CN1CC4(CC4)CC1=O)N(C(=O)[C@@H]1CCCC[C@]1(C)C(=O)O)CC3)C2` (single isomer, unassigned; isomer 1) [Example 215], the EC50 in assay [1] is 550 nM. The molecule further gave a half-maximal inhibitory concentration (IC50) in assay [2] of 71 nM.

As for `Cn1nnc2c1CC(Oc1ccc(Cl)c3c1[C@@H](CN1CC4(CC4)CC1=O)N(C(=O)[C@@H]1CCCC[C@]1(C)C(=O)O)CC3)C2` (single isomer, unassigned; isomer 2) [Example 216], in assay [1], the half-maximal effective concentration (EC50) worked out at 110 nM. In assay [2], this molecule gave an IC50 of 6.4 nM.

With `Cc1cc(C(=O)NCCOc2cccc3c2[C@@H](CN2C(=O)c4ccccc4C2=O)N(C(=O)[C@@H]2CCCC[C@@H]2C(=O)O)CC3)no1` [Example 1, (1S,2R)-2-((S)-1-((1,3-Dioxoisoindolin-2-yl)methyl)-8-(2-(5-methylisoxazole-3-carboxamido)ethoxy)-1,2,3,4-tetrahydroisoquinoline-2-carbonyl)cyclohexanecarboxylic acid], the 50% effective concentration (EC50) in assay [1] (Homo sapiens, BEAS-2B, 24 h) was 850 nM. The IC50 in assay [2] was determined as 12 nM.

For the molecule `O=C(NCCOc1cccc2c1[C@@H](CN1C(=O)c3ccccc3C1=O)N(C(=O)[C@@H]1CCCC[C@@H]1C(=O)O)CC2)c1nc2ccccc2o1` [Example 2, (1S,2R)-2-((S)-8-(2-(Benzo[d]oxazole-2-carboxamido)ethoxy)-1-((1,3-dioxoisoindolin-2-yl)methyl)-1,2,3,4-tetrahydroisoquinoline-2-carbonyl)cyclohexane-1-carboxylic acid], the EC50 in assay [1] (Homo sapiens, BEAS-2B, 24 h) was 150 nM. In addition, in assay [2], it took 12 nM to reach half-maximal inhibition (IC50).

As to `CC(=O)N1CC[C@H](Oc2cccc3c2[C@@H](CN2C(=O)c4ccccc4C2=O)N(C(=O)[C@@H]2CCCC[C@@H]2C(=O)O)CC3)C1` [Example 3, (1S,2R)-2-((S)-8-(((S)-1-Acetylpyrrolidin-3-yl)oxy)-1-((1,3-dioxoiso-indolin-2-yl)methyl)-1,2,3,4-tetrahydroisoquinoline-2-carbonyl)cyclohexane-1-carboxylic acid], in assay [1] (Homo sapiens, BEAS-2B, 24 h), the EC50 was 120 nM. This molecule also gave a half-inhibitory concentration (IC50) in assay [2] of 5.6 nM.

For `Cc1cc(C(=O)N2CC[C@H](Oc3cccc4c3[C@@H](CN3C(=O)c5ccccc5C3=O)N(C(=O)[C@@H]3CCCC[C@@H]3C(=O)O)CC4)C2)no1` [Example 4, (1S,2R)-2-((S)-1-((1,3-Dioxoisoindolin-2-yl)methyl)-8-(((S)-1-(5-methylisoxazole-3-carbonyl)pyrrolidin-3-yl)oxy)-1,2,3,4-tetrahydroisoquinoline-2-carbonyl)cyclohexane-1-carboxylic acid], the half-maximal effective concentration (EC50) in assay [1] (Homo sapiens, BEAS-2B, 24 h) is 13 nM. The IC50 in assay [2] was 9 nM.

Regarding `O=C(O)[C@H]1CCCC[C@H]1C(=O)N1CCc2c(Br)ccc(O[C@H]3CCN(C(=O)c4cncs4)C3)c2[C@H]1CN1C(=O)c2ccccc2C1=O` [Example 5, (1S,2R)-2-((S)-5-bromo-1-((1,3-dioxoisoindolin-2-yl)methyl)-8-(((S)-1-(thiazole-5-carbonyl)pyrrolidin-3-yl)oxy)-1,2,3,4-tetrahydroisoquinoline-2-carbonyl)cyclohexane-1-carboxylic acid], the EC50 in assay [1] (Homo sapiens, BEAS-2B, 24 h) was determined as 2.5 nM. In assay [2], this molecule showed an IC50 of 6.1 nM.

In the case of `O=C(O)[C@H]1CCCC[C@H]1C(=O)N1CCc2cccc(O[C@H]3CCN(C(=O)c4cncs4)C3)c2[C@H]1CN1C(=O)c2ccccc2C1=O` [Example 6, (1S,2R)-2-((S)-1-((1,3-dioxoisoindolin-2-yl)methyl)-8-(((S)-1-(thiazole-5-carbonyl)pyrrolidin-3-yl)oxy)-1,2,3,4-tetrahydroisoquinoline-2-carbonyl)cyclohexane-1-carboxylic acid], the half-maximal effective concentration (EC50) in assay [1] (Homo sapiens, BEAS-2B, 24 h) came out at 78 nM. Moreover, inhibition in assay [2] was half-maximal at 5.6 nM (IC50).

`O=C(O)[C@H]1CCCC[C@H]1C(=O)N1CCc2c(Cl)ccc(OCc3noc4ccccc34)c2[C@H]1CN1CCCC1=O` [Example 72, (1S,2R)-2-((S)-8-(Benzo[d]isoxazol-3-ylmethoxy)-5-chloro-1-((2-oxopyrrolidin-1-yl)methyl)-1,2,3,4-tetrahydroisoquinoline-2-carbonyl)cyclohexane-1-carboxylic acid]: in assay [1] (Homo sapiens, BEAS-2B, 24 h), the EC50 came out at 2.8 nM.

`O=C1CCCN1C[C@@H]1c2c(OCc3noc4ccccc34)ccc(Cl)c2CCN1C(=O)[C@@H]1CCCC[C@@H]1c1nn[nH]n1` [Example 81, 1-(((S)-2-((1R,2S)-2-(2H-tetrazol-5-yl)cyclohexane-1-carbonyl)-8-(benzo[d]isoxazol-3-ylmethoxy)-5-chloro-1,2,3,4-tetrahydroisoquinolin-1-yl)methyl)pyrrolidin-2-one]: the EC50 in assay [1] (Homo sapiens, BEAS-2B, 24 h) came out at 260 nM.

With `C[C@@H]1CC(=O)N(C[C@@H]2c3c(OCc4nnn(C)c4C(F)(F)F)ccc(Cl)c3CCN2C(=O)[C@H]2CCCC[C@]2(C)C(=O)O)C1` [Example 133, (1S,2S)-2-((S)-5-chloro-1-(((R)-4-methyl-2-oxopyrrolidin-1-yl)methyl)-8((1-methyl-5-(trifluoromethyl)-1H-1,2,3-triazol-4-yl)methoxy)-1,2,3,4-tetrahydroisoquinoline-2-carbonyl)-1-methylcyclohexane-1-carboxylic acid], the EC50 in assay [1] (Homo sapiens, BEAS-2B, 24 h) was found to be 20 nM.

As to `C[C@]1(C(=O)O)CCCC[C@H]1C(=O)N1CCc2c(Cl)cc(F)c(OCc3nnn4c3CCCC4)c2[C@H]1CN1CC2(CC2)CC1=O` [Example 144, (1S,2R)-2-((S)-5-chloro-7-fluoro-1-((6-oxo-5-azaspiro[2.4]heptan-5-yl)methyl)-8-((4,5,6,7-tetrahydro-[1,2,3]triazolo[1,5-a]pyridin-3-yl)methoxy)-1,2,3,4-tetrahydroisoquinoline-2-carbonyl)-1-methylcyclohexane-1-carboxylic acid], in assay [1] (Homo sapiens, BEAS-2B, 24 h), the concentration for a half-maximal effect (EC50) turned out to be 0.022 nM.

With `Cn1nnc(COc2ccc(Cl)c3c2[C@@H](CN2CCCC2=O)N(C(=O)[C@@H]2CCCC[C@]2(C)c2nn[nH]n2)CC3)c1C(F)F` [Example 151, 1-(((S)-5-chloro-8-((5-(difluoromethyl)-1-methyl-1H-1,2,3-triazol-4-yl)methoxy)-2-((1R,2S)-2-methyl-2-(2H-tetrazol-5-yl)cyclohexane-1-carbonyl)-1,2,3,4-tetrahydroisoquinolin-1-yl)methyl)pyrrolidin-2-one], the EC50 in assay [1] (Homo sapiens, BEAS-2B, 24 h) worked out at 16 nM.

As to `Cn1nnc(COc2ccc(Cl)c3c2[C@@H](CN2CC4(CC4)CC2=O)N(C(=O)[C@@H]2CCCC[C@@H]2C(=O)O)CC3)c1C(F)F` [Example 197, (1S,2R)-2-((S)-5-Chloro-8-((5-(difluoromethyl)-1-methyl-1H-1,2,3-triazol-4-yl)methoxy)-1-((6-oxo-5-azaspiro [2.4]heptan-5-yl)methyl)-1,2,3,4-tetrahydroisoquinoline-2-carbonyl) cyclohexane-1-carboxylic acid], the EC50 in assay [1] (Homo sapiens, BEAS-2B, 24 h) amounted to 0.51 nM.

`Cn1nnc(COc2ccc(Cl)c3c2[C@@H](CN2CC4(CC4)CC2=O)N(C(=O)[C@@H]2CCCC[C@@H]2c2nnn[nH]2)CC3)c1C(F)F` [Example 202, 5-(((S)-2-((1R,2S)-2-(1H-tetrazol-5-yl)cyclohexane-1-carbonyl)-5-chloro-8-((5-(difluoromethyl)-1-methyl-1H-1,2,3-triazol-4-yl)methoxy)-1,2,3,4-tetrahydroisoquinolin-1-yl)methyl)-5-azaspiro[2.4]heptan-6-one]: the EC50 in assay [1] (Homo sapiens, BEAS-2B, 24 h) came to 79 nM.
